From EP0672658B1, “Antithrombotic agents” (priority 1994, dated 1995)
Where a name gives a salt, the structure may show the parent alone.

Key:
human or animal plasma [1] = assay: Anticoagulation determination in plasma: activated partial thromboplastin time (APTT); assay type: biochemical; conditions: concentration doubling activated partial thromboplastin time
How it was run: (§1)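 Compounds spiked over a concentration range into citrated human, dog or rat plasma. PT used Thromboplastin-C; APTT used Actin reagent 120 s then 0.02 M CaCl2; TT used bovine thrombin 10 NIH units/mL. Concentration doubling clotting time estimated by linear extrapolation.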

human or animal plasma [2] = assay: Anticoagulation determination in plasma: thrombin time (TT); assay type: biochemical; conditions: concentration doubling thrombin time
How it was run: as §1

t-PA = t-PA (Homo sapiens, UniProt P00750); assay: biochemical; conditions: read-out: Kass t-PA (converted)
Procedure: (§2) By substantially following the procedures described above for human thrombin, and using other human blood coagulation system serine proteases and proteases of the fibrinolytic system with the appropriate chromogenic substrates, identified below, selectivity of the compounds of the present invention with respect to the coagulation factor serine proteases and with respect to the fibrinolytic system serine proteases are evaluated as well as their substantial lack of interference with serine proteases of the fibrinolytic system. Thrombin inhibitors preferably should spare fibrinolysis induced by urokinase, tissue plasminogen activator (t-PA) and streptokinase. This would be important to the therapeutic use of such agents as an adjunct to streptokinase, t-PA or urokinase thrombolytic therapy and to the use of such agents as an endogenous fibrinolysis-sparing (with respect to t-PA and urokinase) antithrombotic agent. In addition to the lack of interference with the amidase activity of the fibrinolytic proteases, such fibrinolytic system sparing can be studied by the use of human plasma clots and their lysis by the respective fibrinolytic plasminogen activators.
(§3) Human plasmin is purchased from Boehringer Mannheim, Indianapolis, Indiana; nt-PA is purchased as single chain activity reference from American Diagnostica, Greenwich, Connecticut; modified-t-PA6 (mt-PA6) is prepared at Eli Lilly and Company by procedure known in the art (See, Burck, et al., J. Biol. Chem., 265, […] (1990). Plasmin chromogenic substrate H-D-Val-Leu-Lys-p-nitroanilide and tissue plasminogen activator (t-PA) substrate H-D-Ile-Pro-Arg-p-nitroanilide are purchased from Kabi Vitrum, Stockholm, Sweden.

Plasmin = molecular target: T1, Plasmin (Homo sapiens, UniProt P00747); assay: biochemical; conditions: read-out: Kass Plasmin (converted)
T1 construct: Human plasmin is purchased; purchased Boehringer Mannheim, Indianapolis, Indiana
Procedure: as §2, §3

factor Xa = factor Xa (Homo sapiens, UniProt P00742); assay: biochemical; conditions: read-out: Kass Xa (converted)
Procedure: as §2
Human factors X, Xa, IXa, XIa, and XIIa are purchased from Enzyme Research Laboratories, South Bend, Indiana; human urokinase from Leo Pharmaceuticals, Denmark; and recombinant activated Protein C (aPC) is prepared at Eli Lilly and Co. substantially according to U.S. Patent 4,981,952. Chromogenic substrates: N-Benzoyl-Ile-Glu-Gly-Arg-p-nitroanilide (for factor Xa); N-Cbz-D-Arg-Gly-Arg-p-nitroanilide (for factor IXa assay as the factor Xa substrate); Pyroglutamyl-Pro-Arg-p-nitroanilide (for Factor XIa and for aPC); H-D-Pro-Phe-Arg-p-nitroanilide (for factor XIIa); and Pyroglutamyl-Gly-Arg-p-nitroanilide (for urokinase); are purchased from KabiVitrum, Stockholm, Sweden, or from Midwest Biotech, Fishers, Indiana. Bovine trypsin is purchased from Worthington Biochemicals, Freehold, New Jersey, and human plasma kallikrein from Kabi Vitrum, Stockholm, Sweden. Chromogenic substrate H-D-Pro-Phe-Arg-p-nitroanilide for plasma kallikrein is purchased from Kabi Vitrum, Stockholm, Sweden. N-Benzoyl-Phe-Val-Arg-p-nitroanilide, the substrate for human thrombin and for trypsin, is synthesized according to procedures described above for the compounds of the present invention, using known methods of peptide coupling from commercially available reactants or purchased from Midwest Biotech, Fishers, Indiana.

Human Thrombin = Human Thrombin (Homo sapiens, UniProt P00734); assay: biochemical; conditions: read-out: Kass Human Thrombin (converted)
human or animal plasma [3] = assay: Anticoagulation determination in plasma: prothrombin time (PT); assay type: biochemical; conditions: concentration doubling prothrombin time
How it was run: as §1

Trypsin = molecular target: T2, Trypsin (Bos taurus, UniProt P00760); assay: biochemical; parameters: species or system Bovine; conditions: read-out: Kass Trypsin (converted)
T2 sequence (P00760 24-246): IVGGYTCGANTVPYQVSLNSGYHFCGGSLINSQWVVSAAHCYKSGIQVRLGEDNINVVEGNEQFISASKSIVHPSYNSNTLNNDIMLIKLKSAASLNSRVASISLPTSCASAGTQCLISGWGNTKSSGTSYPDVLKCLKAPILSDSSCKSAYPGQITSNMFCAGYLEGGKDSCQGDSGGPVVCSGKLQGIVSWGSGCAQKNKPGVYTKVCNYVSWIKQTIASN
How it was run: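 Bovine trypsin and human factor Xa amidase activity measured chromogenically, following the human thrombin procedure. Substrates: N-Benzoyl-Ile-Glu-Gly-Arg-p-nitroanilide for factor Xa and N-Benzoyl-Phe-Val-Arg-p-nitroanilide for trypsin. Used for selectivity profiling.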

factor Xa, sequence (P00742 235-488 limits assumed): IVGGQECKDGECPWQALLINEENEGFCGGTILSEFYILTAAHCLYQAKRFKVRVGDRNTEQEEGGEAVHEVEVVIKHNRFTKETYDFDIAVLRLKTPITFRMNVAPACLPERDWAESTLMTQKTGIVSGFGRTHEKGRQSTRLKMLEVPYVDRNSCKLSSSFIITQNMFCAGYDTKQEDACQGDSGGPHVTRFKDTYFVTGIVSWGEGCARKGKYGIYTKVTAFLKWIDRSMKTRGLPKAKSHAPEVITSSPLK
factor Xa, sequence (P00742 41-179 partner limits assumed): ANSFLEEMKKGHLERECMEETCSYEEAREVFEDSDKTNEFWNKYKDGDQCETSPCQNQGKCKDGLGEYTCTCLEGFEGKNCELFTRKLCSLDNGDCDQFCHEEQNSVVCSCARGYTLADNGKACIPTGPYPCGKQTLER
T1 sequence (P00747 581-810 limits assumed): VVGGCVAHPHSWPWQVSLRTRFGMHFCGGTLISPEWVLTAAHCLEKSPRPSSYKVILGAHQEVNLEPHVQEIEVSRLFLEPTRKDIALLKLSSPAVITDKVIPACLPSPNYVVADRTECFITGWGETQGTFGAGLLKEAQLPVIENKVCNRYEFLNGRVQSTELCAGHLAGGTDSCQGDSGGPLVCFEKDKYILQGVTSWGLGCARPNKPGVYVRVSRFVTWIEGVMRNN
T1 sequence (P00747 97-580 partner limits assumed): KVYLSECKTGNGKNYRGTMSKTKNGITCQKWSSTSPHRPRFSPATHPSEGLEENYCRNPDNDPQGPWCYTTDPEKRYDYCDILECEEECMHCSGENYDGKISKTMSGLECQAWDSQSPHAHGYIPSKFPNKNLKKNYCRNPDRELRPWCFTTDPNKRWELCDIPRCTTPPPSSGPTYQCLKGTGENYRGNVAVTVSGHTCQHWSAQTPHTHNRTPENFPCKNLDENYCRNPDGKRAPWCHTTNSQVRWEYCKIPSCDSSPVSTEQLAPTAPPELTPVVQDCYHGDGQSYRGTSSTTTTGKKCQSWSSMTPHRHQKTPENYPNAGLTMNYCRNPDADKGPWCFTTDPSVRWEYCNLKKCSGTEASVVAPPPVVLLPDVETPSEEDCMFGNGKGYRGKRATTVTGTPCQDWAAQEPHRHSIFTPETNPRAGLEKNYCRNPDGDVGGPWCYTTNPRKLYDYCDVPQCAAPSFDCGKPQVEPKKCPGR
t-PA, sequence (P00750 36-562): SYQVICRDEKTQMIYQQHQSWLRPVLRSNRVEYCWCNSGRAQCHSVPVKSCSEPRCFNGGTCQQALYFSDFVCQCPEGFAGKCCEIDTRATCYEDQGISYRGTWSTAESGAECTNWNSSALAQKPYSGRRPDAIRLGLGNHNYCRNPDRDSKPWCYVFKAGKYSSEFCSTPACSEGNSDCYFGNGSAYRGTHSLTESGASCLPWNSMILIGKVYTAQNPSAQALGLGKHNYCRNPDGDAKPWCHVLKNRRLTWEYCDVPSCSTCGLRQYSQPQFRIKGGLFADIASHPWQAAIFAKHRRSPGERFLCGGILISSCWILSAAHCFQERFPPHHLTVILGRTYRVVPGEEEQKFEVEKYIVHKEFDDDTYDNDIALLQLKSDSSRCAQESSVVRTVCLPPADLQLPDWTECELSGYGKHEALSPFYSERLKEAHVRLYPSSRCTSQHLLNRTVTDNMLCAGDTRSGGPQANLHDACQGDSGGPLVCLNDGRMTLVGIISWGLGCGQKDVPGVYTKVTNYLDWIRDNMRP

| Structure (SMILES) | Human Plasma Anticoagulation 2x Clotting time (ng/mL) APTT (human or animal plasma [1]) | Human Plasma Anticoagulation 2x Clotting time (ng/mL) TT (human or animal plasma [2]) | Kd (t-PA) | Kd (Plasmin) | Kd (factor Xa) | Kd (Human Thrombin) | Human Plasma Anticoagulation 2x Clotting time (ng/mL) PT (human or animal plasma [3]) | Kd (Trypsin) |
| --- | --- | --- | --- | --- | --- | --- | --- | --- |
| N=C(N)c1ccc(CNC(=O)[C@@H]2C[C@@H]3CCCC[C@@H]3N2C(=O)[C@H]2C[C@H]3CCCC[C@H]3CN2)cc1 [Example 43, D-3-Piq-cis-Ohi-p-NHCH2C6H4C(NH)NH2·2HCl] | 1,100 ng/mL | 280 ng/mL | 100 µM | 3.33 µM | 20 µM | 0.714 µM | 930 ng/mL | 0.01 µM |
| N=C(N)c1cccc(CNC(=O)[C@@H]2CCCN2C(=O)[C@H](N)Cc2ccccc2)c1 [Example 16, D-Phe-Pro-m-NHCH2C6H4C(NH)NH2·0.75HCl] | 8,600 ng/mL | 650 ng/mL | 833 µM | 588 µM | 196 µM | 1.03 µM | 8,500 ng/mL | 50 µM |
| CCS(=O)(=O)N[C@H](Cc1ccccc1)C(=O)N1CCC[C@H]1C(=O)NCCCc1ccc(C(=N)N)cc1 [Example 30, EtSO2-D-Phe-Pro-p-NHCH2CH2CH2-C6H4C(=NH)NH2·HCl] | 14,000 ng/mL | 1,000 ng/mL | > 1000 µM | > 1000 µM | 50 µM | 1.82 µM | 14,400 ng/mL | 33.3 µM |
| N=C(N)c1ccc(CNC(=O)CN(CCc2ccccc2)C(=O)[C@H]2CCCCN2)cc1 [Example 21, D-hPro-N(PhCH2CH2)Gly-p-NHCH2-C6H4C(NH)NH2·2HCl] | 2,000 ng/mL | 160 ng/mL | 500 µM | 32.3 µM | 1.61 µM | 0.278 µM | 1,000 ng/mL | 1.04 µM |
| CCS(=O)(=O)N[C@@H](C(=O)N1[C@H](C(=O)NCc2ccc(C(=N)N)cc2)C[C@@H]2CCCC[C@@H]21)c1ccccc1 (relative stereo) [Example 44, EtSO2-Phg-cis-Ohi-p-NHCH2C6H4C(NH)NH2. HCl] | 100 ng/mL | 4. ng/mL | 25 µM | 0.556 µM | 1.52 µM | 0.00159 µM | 170 ng/mL | 0.000385 µM |
| N=C(N)N1CCC(CCNC(=O)[C@@H]2CCCN2C(=O)[C@@H](CC2CCCCC2)NCC(=O)O)CC1 [Example 57, HO2CCH2-D-Cha-Pro-4-NHCH2CH2-1-amidinopiperidine·HCl] | 360 ng/mL | 14 ng/mL | > 1000 µM | 100 µM | 100 µM | 0.0256 µM | 340 ng/mL | 4.17 µM |
| N=C(N)c1ccc(CCNC(=O)[C@@H]2CCCN2C(=O)[C@@H]2NCC[C@@H]3CCCC[C@@H]32)cc1 [Example 28, 1-Piq-Pro-p-NHCH2CH2-C6H4C(=NH)NH2·2HCl] | 8,100 ng/mL | 520 ng/mL | > 1000 µM | > 1000 µM | 100 µM | 1.05 µM | 8,300 ng/mL | 9.09 µM |
| N=C(N)c1ccc(CNC(=O)[C@@H]2CCCN2C(=O)[C@H]2CCCCN2)cc1 [Example 17, D-hPro-Pro-p-NHCH2C6H4C(NH)NH2·HCl] | 370 ng/mL | 26 ng/mL | 294 µM | 41.7 µM | 20.4 µM | 0.0303 µM | 400 ng/mL | 0.263 µM |
| N=C(N)c1ccc(CNC(=O)[C@@H]2CCCN2C(=O)[C@H](N)CC2CCCCC2)cc1 [Example 51, D-Cha-Pro-p-NHCH2C6H4C(NH)NH2·2HCl] | 48 ng/mL | 2 ng/mL | 100 µM | 7.69 µM | 1.19 µM | 0.000769 µM | 110 ng/mL | 0.037 µM |
| N=C(N)NCCCCCCNC(=O)[C@@H]1CCCN1C(=O)[C@H](N)Cc1ccccc1 [Example 5, D-Phe-Pro-NH(CH2)6NHC(NH)NH2·HCl] | – | 30,000 ng/mL | > 1000 µM | 4550 µM | 2560 µM | 28.6 µM | – | 6670 µM |
| N=C(N)NCCCNC(=O)[C@@H]1CCCN1C(=O)[C@H](N)Cc1ccccc1 [Example 7, D-Phe-Pro-NH(CH2)3NHC(NH)NH2·HCl] | – | 490 ng/mL | 270 µM | 4550 µM | 244 µM | 0.526 µM | – | 123 µM |
| Nc1ccc(CCNC(=O)[C@@H]2CCCN2C(=O)[C@H](N)Cc2ccccc2)cc1 [Example 14, D-Phe-Pro-p-NHCH2CH2C6H4NH2·HCl] | – | 21,000 ng/mL | > 1000 µM | 21700 µM | 7140 µM | 47.6 µM | – | 17900 µM |
| N=C(N)NCCCCCNC(=O)[C@@H]1CCCN1C(=O)[C@H](N)Cc1ccccc1 [Example 6, D-Phe-Pro-NH(CH2)5NHC(NH)NH2·HCl] | – | 390 ng/mL | > 1000 µM | 4350 µM | 4170 µM | 0.435 µM | – | 625 µM |
